Here are results for 19 compounds from the Deep4Chem optical property database.

The data set in a line: solvent given as SMILES.

The compound `c1ccc(-c2c3c(nc4ccccc24)-c2cc4c(cc2CC3)-c2nc3ccccc3c(-c3ccccc3)c2CC4)cc1` yielded an emission maximum (in ClC(Cl)Cl) of 387 nm.

As to `C(=C\c1cccnc1)/c1ccc(Nc2ccccc2)cc1`, the emission maximum came to 456 nm (in CC#N) and 385 nm (in CCCCCC).

Consider `CN(C)c1ccc(C2=Nc3sc4cc(Cl)ccc4[n+]3[B-](F)(F)O2)cc1`, for which the emission maximum was 477 nm (in C1CCOC1); 491 nm (in CC#N); 488 nm (in CC(C)=O); 456 nm (in Cc1ccccc1); 473 nm (in ClCCl).

`CC1=CC(C)=[N+]2C1=C(c1ccc(I)cc1)c1c(C)cc(C)n1[B-]2(OC(C)C)OC(C)C`: the emission maximum (in ClC(Cl)Cl) turned out to be 517.73 nm.

Turning to `CC1(C)C(/C=C/C=C/C=C/C=C2/N(CS(=O)(=O)[O-])c3ccc(S(=O)(=O)[O-])cc3C2(C)C)=[N+](CS(=O)(=O)[O-])c2ccc(S(=O)(=O)[O-])cc21`, the emission maximum stood at 776 nm (in CO) and 771 nm (in O).

Regarding `c1ccc(-c2nc3ccccc3nc2-c2ccccc2)cc1`, the emission maximum by setting is: (in C1CCOC1) 401 nm; (in CC#N) 399 nm; (in CCCCCC) 396 nm; (in CN(C)C=O) 403 nm; (in Cc1ccccc1) 400 nm; (in ClC(Cl)Cl) 398 nm.

As to `CN(c1ccccc1)c1ccc(/C=C/c2ccccc2)cc1`, the emission maximum came out at 450 nm (in CC#N) and 385 nm (in CCCCCC).

For the setting “in CN(C)C=O”, `NCCCCCCCCCCCCN1C(=O)c2ccc3c4ccc5c6c(ccc(c7ccc(c2c37)C1=O)c64)C(=O)N(CCCCCCCCCCCCN)C5=O` yielded an emission maximum of 537 nm.

`CCCCOC(=O)c1cc(Cl)c2c3c(Cl)cc4c5c(cc(Cl)c(c6c(Cl)cc(C(=O)OCCCC)c1c26)c53)C(=O)N(c1c(C(C)C)cccc1C(C)C)C4=O` displayed an emission maximum (in Cc1ccccc1) of 530 nm.

The compound `CCOC(=O)c1c(-c2cc3ccccc3oc2=O)nn(-c2ccc(C)c(C)c2)c1C(=O)OCC` returned an emission maximum (in ClCCl) of 408 nm.

Consider `COc1ccc(NC(=O)C(C(=O)Nc2ccc(OC)cc2)C(c2ccccc2O)c2c(C)[nH]c3ccccc23)cc1` (stereo not given), for which the emission maximum is, setting by setting: (in CO) 350 nm; (in CS(C)=O) 360 nm.

As to `CC(C)c1cc(C(C)C)c(B2c3ccccc3Oc3cc(N4c5ccccc5C5(c6ccccc6Oc6ccccc65)c5ccccc54)ccc32)c(C(C)C)c1`, the emission maximum (in Cc1ccccc1) is 451 nm.

As for `COc1cc2c(cc1-c1ccncc1)Cc1c3c(c4c(c1-2)-c1cc(OC)c(-c2ccncc2)cc1C4)C(=O)N(CCC(C)C)C3=O`, under “in C1CCOC1”, the emission maximum came out at 456 nm.

In the case of `CCCCN(CCCC)c1ccc(C#Cc2cc(C#Cc3cc(C(F)(F)F)cc(C(F)(F)F)c3)c(C#Cc3cc(C(F)(F)F)cc(C(F)(F)F)c3)cc2C#Cc2ccc(N(CCCC)CCCC)cc2)cc1`, the emission maximum turned out to be 556 nm (in ClCCl) and 506 nm (in c1ccccc1).

With `C[Si](C)(c1c2ccccc2cc2ccccc12)[Si](C)(C)c1c2ccccc2cc2ccccc12`, the emission maximum is, setting by setting: (in C1CCCCC1) 425 nm; (in CC#N) 425 nm.

`CCCCc1ccc(-n2c3c4ccc(C(F)(F)F)cc4nc(-c4ccc(C#N)cc4)c3c3c2c2c(-c4ccc(C#N)cc4)nc4cc(C(F)(F)F)ccc4c2n3-c2ccc(CCCC)cc2)cc1` displayed an emission maximum (in ClC(Cl)Cl) of 499 nm.

Compound `COc1ccc(Oc2ccc3c4c(cccc24)C(=O)N(c2c(C(C)C)cccc2C(C)C)C3=O)cc1` registered an emission maximum (in ClCCl) of 434 nm.

On to `F[B-]1(F)Oc2ccccc2-c2cc(-n3c4ccccc4c4ccccc43)cc[n+]21`, for which the emission maximum is, setting by setting: (in Cc1ccccc1) 449 nm; (in O=P(c1ccccc1)(c1ccccc1)c1ccccc1Oc1ccccc1P(=O)(c1ccccc1)c1ccccc1) 475 nm.

With `C(/C=C/Nc1cccc2ccccc12)=[NH+]c1cccc2ccccc12`, the emission maximum (in CS(C)=O) was determined as 527 nm.
